Laboratory results as given in publication PMC467089, “Click estradiol dimers with novel aromatic bridging units: synthesis and anticancer evaluation” (Journal of Enzyme Inhibition and Medicinal Chemistry, 2024).

How the values were obtained:
[1] = system: K562-TAX (paclitaxel-resistant variant of K562); test: MTS cytotoxicity assay, K562-TAX; format: cell-based, human; conditions: Homo sapiens, K562-Tax; MTS assay, 72-h incubation, mean ± SD of 3 independent experiments; read-out: IC50 cytotoxic activity K562-TAX
Method in brief: (§1)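 MTS read-out after 72 h compound exposure at 37 °C. Cells plated the day before, treated with fourfold serial dilutions from DMSO stocks; duplicate wells, three independent experiments.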

[2] = system: U2OS (osteosarcoma); test: MTS cytotoxicity assay, U2OS; format: cell-based, human; conditions: MTS assay, 72-h incubation, mean ± SD of 3 independent experiments; for IC50: Homo sapiens, U2OS, read-out: IC50 cytotoxic activity U2OS
Method in brief: as §1

[3] = system: CCRF-CEM lymphoblasts; test: Phospho-histone H3 (Ser10) mitotic marker, flow cytometry; format: cell-based, human
Method in brief: (§2)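 CCRF-CEM cells treated 24 h, then fixed in cold 70% ethanol, permeabilised with 0.25% Triton X-100 and stained with anti-phospho-histone H3 (Ser10). After 50 μg/mL RNase and propidium iodide, analysed by flow cytometry at 488 nm; sub-G1 events counted as non-viable with fragmented DNA.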

[4] = MTS cytotoxicity assay, MRC-5; format: cell-based; conditions: human, MRC-5 cells (non-tumour fibroblasts); MTS assay, 72-h incubation, mean ± SD of 3 independent experiments; read-out: IC50 cytotoxic activity MRC-5
Method in brief: (§3)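 Culture medium carried 10% foetal calf serum plus antibiotics. Treatment lasted 72 h with a fourfold dilution series, followed by MTS detection, in technical duplicate across three biological replicates.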

[5] = system: HCT116 (colorectal adenocarcinoma); test: MTS cytotoxicity assay, HCT116; format: cell-based; conditions: Homo sapiens, HCT-116; MTS assay, 72-h incubation, mean ± SD of 3 independent experiments; read-out: IC50 cytotoxic activity HCT116
Method in brief: as §3

[6] = system: CEM-DNR (daunorubicin resistant variant of CCRF-CEM); test: MTS cytotoxicity assay, CEM-DNR; format: cell-based, human; conditions: Homo sapiens, CEM-DNR; MTS assay, 72-h incubation, mean ± SD of 3 independent experiments; read-out: IC50 cytotoxic activity CEM-DNR
Method in brief: as §1

[7] = system: CCRF-CEM lymphoblasts; test: BrU incorporation analysis (RNA synthesis); format: cell-based, human; conditions: for RNA synthesis, BrU incorporation (in words): 1× and 5×IC50, 24 h, gated remaining live cells
Method in brief: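 CCRF-CEM cells were treated with compounds for 24 h, then pulsed with 1 mM BrU for 30 min and fixed in 1% paraformaldehyde/0.05% NP-40. BrU was detected with a cross-reacting anti-BrdU antibody and FITC secondary, with propidium iodide/RNase counterstain; value is percentage of BrU-positive cells by flow cytometry.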

[8] = system: CCRF-CEM lymphoblasts; test: BrDU incorporation analysis (DNA synthesis); format: cell-based, human
Method in brief: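 CCRF-CEM cells exposed to compounds for 24 h, pulse-labelled 30 min before harvest with 10 μM BrDU, ethanol-fixed, HCl-denatured, stained with anti-BrdU/FITC plus propidium iodide and RNase. Flow cytometry (488 nm) gives the percentage of BrDU-positive cells.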

[9] = system: CCRF-CEM (childhood T-cell acute lymphoblastic leukaemia); test: MTS cytotoxicity assay, CCRF-CEM; format: cell-based; conditions: Homo sapiens, MTS assay, 72-h incubation, mean ± SD of 3 independent experiments, read-out: IC50 cytotoxic activity CCRF-CEM
Method in brief: as §3

[10] = system: CCRF-CEM lymphoblasts; test: Cell cycle analysis by flow cytometry (propidium iodide); format: cell-based, human
Method in brief: as §2

| SMILES | IC50 [1] [nM] | IC50 [2] [nM] | pH3Ser10, % of positive cells ([3]; 1×IC50, 24 h) [%] | pH3Ser10, % of positive cells ([3]; 5×IC50, 24 h) [%] | IC50 at 72 h [4] [nM] | IC50 [5] [nM] | IC50 [6] [nM] | BrU, % of positive cells ([7]; 1×IC50, 24 h) [%] | BrU, % of positive cells ([7]; 5×IC50, 24 h) [%] | BrDU, % of positive cells ([8]; 1×IC50, 24 h) [%] | BrDU, % of positive cells ([8]; 5×IC50, 24 h) [%] | IC50 [9] [nM] | <G1 (sub-G1, fragmented DNA), % of positive cells ([10]; 1×IC50, 24 h) [%] | >G2/M (polyploidy), % of positive cells ([10]; 1×IC50, 24 h) [%] | G0/G1, % of positive cells ([10]; 1×IC50, 24 h) [%] | G2/M, % of positive cells ([10]; 1×IC50, 24 h) [%] | S, % of positive cells ([10]; 1×IC50, 24 h) [%] | <G1 (sub-G1, fragmented DNA), % of positive cells ([10]; 5×IC50, 24 h) [%] | >G2/M (polyploidy), % of positive cells ([10]; 5×IC50, 24 h) [%] | G0/G1, % of positive cells ([10]; 5×IC50, 24 h) [%] | further results |
| --- | --- | --- | --- | --- | --- | --- | --- | --- | --- | --- | --- | --- | --- | --- | --- | --- | --- | --- | --- | --- | --- |
| COc1cc(Cn2cc([C@]3(O)CC[C@H]4[C@@H]5CCc6cc(O)ccc6[C@H]5CC[C@@]43C)nn2)cc(Cn2cc([C@]3(O)CC[C@H]4[C@@H]5CCc6cc(O)ccc6[C@H]5CC[C@@]43C)nn2)c1 [ED3, (17β,17′β)-17,17′-[(5-Methoxybenzene-1,3-diyl)bis(methanediyl-1H-1,2,3-triazole-1,4-diyl)]bisestra-1,3,5(10)-triene-3,17-diol] | > 50000 | 610 ± 33 | 1.43 | 0.77 | > 50000 | 470 ± 22 | > 50000 | 68.66 | 60.00 | 7.81 | 3.23 | 380 ± 19 | 33.51 | 10.23 | 6.68 | 70.65 | 22.67 | 53.18 | 9.8 | 6.89 | mitosis-specific phosphorylation of histone H3 (in words) ([3]; 1× and 5×IC50, 24 h): did not induce an increase of mitosis-specific phosphorylation of histone H3; RNA synthesis, BrU incorporation (in words) [7]: high rate of RNA synthesis; G2/M, % of positive cells ([10]; 5×IC50, 24 h): 71.67%; S, % of positive cells ([10]; 5×IC50, 24 h): 21.44% |
| C[C@]12CC[C@@H]3c4ccc(O)cc4CC[C@H]3[C@@H]1CC[C@@]2(O)c1cn(Cc2cccc(Cn3cc([C@]4(O)CC[C@H]5[C@@H]6CCc7cc(O)ccc7[C@H]6CC[C@@]54C)nn3)n2)nn1 [ED, reference compound] | > 50000 | 6230 ± 700 | 8.08 | 48.71 | 1160 ± 250 | 950 ± 110 | > 50000 | 34.33 | 15.43 | 19.54 | 15.94 | 490 ± 220 | 11.51 | 11.2 | 33.48 | 25.59 | 40.93 | 22.78 | 23.1 | 2.50 | G2/M, % of positive cells ([10]; 5×IC50, 24 h): 59.11%; S, % of positive cells ([10]; 5×IC50, 24 h): 38.39% |
| C[C@]12CC[C@@H]3c4ccc(O)cc4CC[C@H]3[C@@H]1CC[C@@]2(O)c1cn(Cc2cc(Cn3cc([C@]4(O)CC[C@H]5[C@@H]6CCc7cc(O)ccc7[C@H]6CC[C@@]54C)nn3)cc(OCCO)c2)nn1 [ED5, (17β,17′β)-17,17′-{[5-(2-Hydroxyethoxy)benzene-1,3-diyl]bis(methanediyl-1H-1,2,3-triazole-1,4-diyl)}bisestra-1,3,5(10)-triene-3,17-diol] | > 50000 | > 50000 | 6.27 | 0.34 | > 50000 | 2020 ± 190 | > 50000 | 65.14 | 66.40 | 32.15 | 9.59 | 710 ± 40 | 29.35 | 6.16 | 35.53 | 26.90 | 37.57 | 36.87 | 10.73 | 13.42 | IC50 cytotoxic activity U2OS [2]: did not exhibit activity; RNA synthesis, BrU incorporation (in words) [7]: high rate of RNA synthesis; G2/M, % of positive cells ([10]; 5×IC50, 24 h): 61.48%; S, % of positive cells ([10]; 5×IC50, 24 h): 25.09% |
